# Source: patent US10561676B2, “Method for treating cancer using dual antagonists of CXCR1 and CXCR2” (Syntrix Biosystems, Inc., priority 2018, dated 2020)
# Columns and labels:
# [1] = tested on: Ptenpc−/−p53pc−/−Smad4pc−/− mice; experiment: Ptenpc−/−p53pc−/−Smad4pc−/− mouse model of castration resistant prostate cancer; assay type: in vivo; settings: 4-6 weeks
# Method: The genetically engineered Ptenpc−/−p53pc−/−Smad4pc−/− mouse is a prostate-specific PB promoter-driven (PB-Cre4) conditional triple knockout model (i.e., prostate-specific deletion of all three tumor suppressors, Pten, p53 and Smad4 occurs in the ‘prostate cancer’ or ‘pc’). […] SX-682 was used as a spray dried dispersion (Formulation Example 1), and was administered to mice via oral gavage as a suspension in 0.5% aq. methylcellulose. Treatment was continued for 4-6 weeks and prostate weights measured to determine tumor burden. […] Mean+SE.
# [2] = tested on: TRIA mouse model of melanoma; experiment: TRIA mouse model of melanoma
# [3] = tested on: isolated human neutrophils; experiment: CXCL8-mediated intracellular calcium flux in isolated human neutrophils; assay type: cell-based; settings: Neutrophil, 25 nM CXCL8, mean ±SE
# Method: Cells were incubated for 30 min at 37° C. […] The test compound or DMSO (control) was added again at the same concentrations that were used during cell loading.
# The maximum change in fluorescence, expressed in arbitrary units over baseline (Max-Min), was used to determine the CXCL8 response.
# MDSCs = experiment: GROα-mediated MDSC migration; assay type: cell-based, mouse; settings: 0.1, 1 and 10 μM, 100 ng/ml GROα, 12 hours
# Method: Using the of method of Katoh 2013 to induce and isolate MDSCs, male BALBc mice were given a single intraperitoneal injection of azoxymethane (AOM, 10 mg/kg). Seven days later, these mice were given 4 cycles of water and water containing 1.25% dextran sulfate sodium (DSS). One cycle consisted of providing mice with regular drinking water for 7 days, followed by 1.25% aqueous DSS for 7 days, followed by regular drinking water for 7 days. MDSCs were isolated from femurs and blood of AOM/DSS-treated BALBc mice using the Myeloid-Derived Suppressor Cell Isolation Kit (Miltenyi Biotec) after lysis of red blood cells (RBC) according to the manufacturer's instructions. GROα (CXCL1) was placed in the bottom chamber of a 24-well plate at a concentration of 100 ng/ml. MDSCs isolated from blood of AOM/DSS-treated BALBc mice were seeded at a density of 1×10^6/well in the upper chamber (3 m, BD Falcon). After incubation for 12 hours, migrated cells were quantified by flow cytometry using COUNTBRIGHT™ Absolute Counting Beads (Molecular Probes). To evaluate the effect of SX-682 on GROα-mediated MDSC migration, aqueous DMSO solutions of SX-682 were added to the MDSC-seeded wells prior to migration. The test concentrations of SX-682 were 0.1, 1 and 10 μM, and the DMSO concentration was <1%.
# [4] = tested on: T11 mouse model of breast cancer; experiment: T11 mouse model of breast cancer; assay type: in vivo
# Excerpt: The T11 model is a validated mouse model of breast cancer, which derives from the serial orthotopic transplantation of a murine breast tumor derived from a p53-null mouse into a syngeneic p53 competent recipient, and features sporadic, somatic K-Ras mutation (Herschkowitz, 2012, Proc Natl Acad Sci, 109:2778-83, herein incorporated by reference). Tumors from the T11 model display an RNA expression pattern characteristic of the human claudin-low disease, and are extremely aggressive, with the majority of untreated animals surviving less than 21 days from the time of enrollment in the therapy studies. Treatment regimens were started following tumor manifestation. SX-682 was given orally via medicated feed, at an approximate dose of 10 mg/day/mouse. In brief, the medicated feed was prepared by Research Diets (New Brunswick, N.J.) by incorporating 15.2 grams of SX-682 spray dried dispersion (as prepared in Formulation Example 1) into 1042 grams of standard rodent diet with 10% kcals from fat. The medicated feed was formed into pellets. Carboplatin (CP) was administered once weekly via intraperitoneal injection at a dose of 50 mg/kg. […] Mean±SE. *** P<0.0001 (linear regression).
# CXCR2 = molecular target: T1, CXCR2 (Homo sapiens, UniProt P25025); experiment: Wash-resistant inhibition of CXCL8-mediated calcium flux, CXCR2-transfected RBL cells; assay type: cell-based; settings: 30 min incubation at 0.4, 2, 10 μM, then washout
# T1 construct: expressed in transfected cells
# T1 sequence (P25025 1-360): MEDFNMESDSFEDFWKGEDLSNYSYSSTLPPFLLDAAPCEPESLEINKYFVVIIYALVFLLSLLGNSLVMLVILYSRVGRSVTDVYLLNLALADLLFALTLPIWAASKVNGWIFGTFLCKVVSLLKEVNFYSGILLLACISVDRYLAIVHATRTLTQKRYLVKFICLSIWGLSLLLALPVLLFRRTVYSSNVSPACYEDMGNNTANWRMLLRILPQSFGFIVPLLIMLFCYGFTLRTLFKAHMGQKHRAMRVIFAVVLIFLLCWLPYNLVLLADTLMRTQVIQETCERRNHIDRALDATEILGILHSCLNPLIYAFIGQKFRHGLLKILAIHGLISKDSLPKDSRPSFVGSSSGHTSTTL
# Method: In order to test this hypothesis, RBL cells (10^7 cells/ml) stably transfected with either CXCR1 or CXCR2 were (1) incubated with SX-682 at various concentrations for 30 minutes at 37° C., (2) washed and resuspended in assay buffer (RPMI/2% serum) at room temperature, and (3) assayed for CXCL8-mediated calcium response at time points up to 12 h after inhibitor washout. The concentrations of SX-682 tested were 0 (positive control), 0 (negative control), 0.4, 2, and 10 μM. At 30 minutes before each time point, a 56.25 μl aliquot of the cells were removed and loaded for 30 minutes at room temperature in the dark with FLIPR™ 3 reagent (262.5 μl per tube). Following FLIPR™ 3 incubation, cells were assayed for CXCL8 mediated intracellular calcium release as described in Pharmacology Example 1.
# Sprague-Dawley rats = experiment: Ozone rat model of pulmonary inflammation (neutrophil influx into BALF); assay type: in vivo
# Method: SX-682 was assayed in an in vivo rat model of pulmonary inflammation. Activity in this model of pulmonary inflammation provides evidence that supports the use of SX-682 in the treatment of a number of pulmonary inflammatory diseases, including chronic obstructive pulmonary disease (COPD) and bronchopulmonary dysplasia (BPD). In this experiment, Sprague-Dawley rats (n=4 per cohort) were dosed intravenously only once at t=0 with either vehicle control (dimethylformamide/PEG400/saline, 40:40:20), positive inhibitor control (SX-576, 1 mg/kg) or the test compound (SX-682, 1 mg/kg). The rats were then placed in air (negative exposure group; vehicle control only) or 1 ppm ozone (positive exposure group; vehicle control, positive inhibitor control SX-576, and test compound SX-682) for 4 hours. The rats were then sacrificed at t=24 hours, and the bronchoalveolar lavage fluid (BALF) was collected. The cells were spun down, stained with Wright-Giemsa and counted. In the negative exposure group, no neutrophils were observed when stained. In the ozone exposed rats treated with vehicle however, there was a brisk influx of neutrophils of approximately 14,000 per mL of BALF (FIG. 5).
# [5] = tested on: C3Tag mouse model of breast cancer; experiment: C3Tag mouse model of breast cancer; assay type: in vivo
# Excerpt: The C31-T-antigen (C3Tag) mouse model is a validated model of human triple-negative basal cell breast cancer as shown by gene expression analysis (Maroulakou, 1994, Proc Natl Acad Sci, 91:11236-40, herein incorporated by reference). The expressed large T-antigen binds and inactivates the RB and p53 tumor suppressor genes, explaining why this model faithfully recapitulates human basal breast cancer, which also harbors RB and p53 inactivation. This model also has frequent K-Ras amplification and infrequent Ras mutations. Treatment regimens were started following tumor manifestation. SX-682 was given orally via medicated feed, at an approximate dose of 10 mg/day/mouse. CP was administered once weekly via intraperitoneal injection at a dose of 50 mg/kg.
# [6] = SX-682 10 mg/day/mouse oral feed + CP 50 mg/kg weekly i.p.
compound,measurement,setting,value
"O=C(Nc1ccc(F)cc1)c1cnc(SCc2cc(OC(F)(F)F)ccc2B(O)O)nc1 [SX-682, 2-(2-boronic acid-5-trifluoromethoxy-benzylsulfanyl)-pyrimidine-5-carboxylic acid (4-fluoro-phenyl)-amide]","prostate weight (tumor burden), SX-682 alone",[1]; 50 mg/kg b.i.d. oral gavage,inhibited prostate cancer
same,"prostate weight (tumor burden), SX-682 plus ICB",[1]; SX-682 50 mg/kg b.i.d. oral + anti-PD1 and anti-CTLA4 200 μg each 3×/week,significantly better than control or either treatment alone
same,"tumor growth, SX-682 alone",[2]; 10 mg/day/mouse oral feed,significantly slowed tumor growth
same,"complete remission (zero tumor volume), SX-682 combination with CP",[2]; [6],5 of 11
same,IC50,[3],55 ± 6 nM
same,GROα-mediated MDSC migration,MDSCs,effectively inhibit GROα-mediated MDSC migration in a dose-dependent manner
same,"tumor volume, SX-682 alone","[4]; 10 mg/day/mouse oral, 1-2 weeks",effective therapy
same,"tumor growth, SX-682 added to carboplatin",[4]; [6],significantly reduced tumor growth
same,time inhibition of calcium flux is sustained after washout,CXCR2,at least 12 hours
same,influx of neutrophils into the lungs (BALF) vs vehicle,"Sprague-Dawley rats; 1 mg/kg i.v. once, 1 ppm ozone 4 hours, BALF at 24 hours",significantly decreased the influx of neutrophils
same,time inhibition of neutrophil influx into BALF is sustained,Sprague-Dawley rats; single dose of 1 mg/kg i.v.,24 h
same,"tumor growth vs untreated controls, SX-682 alone",[5]; 10 mg/day/mouse oral feed,significantly reduced tumor growth
same,"median survival, SX-682 combined with CP",[5]; [6],> 60 days
same,"tumor growth vs untreated controls, SX-682 in combination with carboplatin",[5]; [6],significantly reduced tumor growth
same,"median survival, single agent","[5]; SX-682 10 mg/day/mouse oral, carboplatin 50 mg/kg weekly i.p., vehicle 18 days",28 days
